US20250025473A1 (priority 2021, published 2025)
Like-named read-outs stand apart in the source and are kept apart here.

Columns and labels:
panel of 393 kinases [1] = target: T1, panel of 393 kinases (Homo sapiens, UniProt P78527); experiment: biochemical; details: CIMSS 10 μM, 10 μM ATP
T1 construct: purchased Reaction Biology Corporation

panel of 393 kinases [2] = target: T2, panel of 393 kinases (Homo sapiens, UniProt Q13131); experiment: biochemical; details: CIMSS 10 μM, 10 μM ATP
T2 construct: purchased Reaction Biology Corporation
T2 sequence (Q13131 whole entry): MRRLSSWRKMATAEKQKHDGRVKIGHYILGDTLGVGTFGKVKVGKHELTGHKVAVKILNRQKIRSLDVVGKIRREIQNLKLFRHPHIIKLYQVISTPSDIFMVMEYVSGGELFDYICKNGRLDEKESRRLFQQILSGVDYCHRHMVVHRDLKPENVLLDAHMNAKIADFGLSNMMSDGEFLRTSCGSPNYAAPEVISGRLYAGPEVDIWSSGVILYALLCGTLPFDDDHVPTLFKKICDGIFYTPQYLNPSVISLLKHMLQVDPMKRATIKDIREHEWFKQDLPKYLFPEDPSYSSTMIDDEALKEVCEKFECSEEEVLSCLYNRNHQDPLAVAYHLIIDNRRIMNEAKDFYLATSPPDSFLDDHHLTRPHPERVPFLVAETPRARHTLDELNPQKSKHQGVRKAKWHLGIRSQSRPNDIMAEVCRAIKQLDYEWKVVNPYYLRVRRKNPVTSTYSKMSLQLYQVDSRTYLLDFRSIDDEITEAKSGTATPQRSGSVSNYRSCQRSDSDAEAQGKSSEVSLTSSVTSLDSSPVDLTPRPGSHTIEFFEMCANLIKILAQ

panel of 393 kinases [3] = target: T3, panel of 393 kinases (Homo sapiens, UniProt Q15118); experiment: biochemical; details: CIMSS 10 μM, 10 μM ATP
T3 construct: purchased Reaction Biology Corporation

panel of 393 kinases [4] = target: T4, panel of 393 kinases (Homo sapiens, UniProt Q96QT4); experiment: biochemical; details: CIMSS 10 μM, 10 μM ATP
T4 construct: purchased Reaction Biology Corporation

panel of 393 kinases [5] = target: T5, panel of 393 kinases (Homo sapiens, UniProt Q15119); experiment: biochemical; details: CIMSS 10 μM, 10 μM ATP
T5 construct: purchased Reaction Biology Corporation

panel of 393 kinases [6] = target: T6, panel of 393 kinases (Homo sapiens, UniProt Q9BQI3); experiment: biochemical; details: CIMSS 10 μM, 10 μM ATP
T6 construct: purchased Reaction Biology Corporation

panel of 393 kinases [7] = target: T7, panel of 393 kinases (Homo sapiens, UniProt P42345); experiment: biochemical; details: CIMSS 10 μM, 10 μM ATP
T7 construct: purchased Reaction Biology Corporation

panel of 393 kinases [8] = target: T8, panel of 393 kinases (Homo sapiens, UniProt Q15120); experiment: biochemical; details: CIMSS 10 μM, 10 μM ATP
T8 construct: purchased Reaction Biology Corporation

panel of 393 kinases [9] = target: T9, panel of 393 kinases (Homo sapiens, UniProt Q9NZJ5); experiment: biochemical; details: CIMSS 10 μM, 10 μM ATP
T9 construct: purchased Reaction Biology Corporation

panel of 393 kinases [10] = target: T10, panel of 393 kinases (Homo sapiens, UniProt Q16654); experiment: biochemical; details: CIMSS 10 μM, 10 μM ATP
T10 construct: purchased Reaction Biology Corporation
T10 sequence (Q16654 whole entry): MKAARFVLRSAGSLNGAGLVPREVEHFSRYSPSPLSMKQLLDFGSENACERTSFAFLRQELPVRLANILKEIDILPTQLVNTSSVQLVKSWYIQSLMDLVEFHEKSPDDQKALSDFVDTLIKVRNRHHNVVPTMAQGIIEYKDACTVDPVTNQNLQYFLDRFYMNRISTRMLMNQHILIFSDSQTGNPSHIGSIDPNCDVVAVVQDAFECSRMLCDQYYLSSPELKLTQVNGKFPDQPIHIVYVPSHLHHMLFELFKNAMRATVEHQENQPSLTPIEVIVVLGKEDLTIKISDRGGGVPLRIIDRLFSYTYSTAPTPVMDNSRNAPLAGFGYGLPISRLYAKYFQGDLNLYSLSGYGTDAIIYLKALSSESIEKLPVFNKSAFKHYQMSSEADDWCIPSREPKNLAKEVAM

panel of 393 kinases [11] = target: T11, panel of 393 kinases (Homo sapiens, UniProt P19525); experiment: biochemical; details: CIMSS 10 μM, 10 μM ATP
T11 construct: purchased Reaction Biology Corporation

panel of 393 kinases [12] = target: T12, panel of 393 kinases (Homo sapiens, UniProt O00418); experiment: biochemical; details: CIMSS 10 μM, 10 μM ATP
T12 construct: purchased Reaction Biology Corporation

HaCat cells = experiment: Cytotoxicity/viability, confluent HaCat cells; format: cell-based, human; details: 10 μM, fully confluent HaCat cells, up to 120 h
Experimental: (§1) Results are presented as mean±SEM odu as a percentage of the DMSO control (n=2 independent experiments each conducted in duplicate for C and 1 experiment conducted in duplicate for D). Results in B-D were compared by ANOVA, *p<0.05, **p<0.01, ***p<0.001, ****p<0.0001).
(§2) Cell proliferation and viability were determined using the Cell Titer 96® Aqueous One Solution and optical density was determined using a SpectraMax® M5e Molecular Devices multidetection microplate reader. […] The cells were then fixed and stained for activated caspases (red) and SYTOX Green (for integrity of plasma membrane) by Image-iT™ LIVE red Poly Caspase Detection kit. Nuclei were stained with Hoechst. Images were acquired by laser confocal microscope ZeissLive/DuoScan equipped with oil immersion objectives 63×1.1 and captured in an optical slice of 0.37 μm with appropriate filters. Alternatively, immunoblots were prepared and probed with antibodies to cleaved PARP-1 or cleaved caspase 8.

EGFR = EGFR (Homo sapiens, UniProt P00533); experiment: HotSpot in vitro kinase assay, EGFR; details: read-out: Compound IC50, EGFR; in vitro kinase activity
[13] = system: primary vaginal epithelial cells; experiment: Proliferation and viability, primary vaginal epithelial cells; format: cell-based, human; details: 10 or 50 μM, about 50% confluent primary vaginal epithelial cells, up to 120 h
Experimental: as §1, §2

HSV-2(G) = experiment: HSV binding assay (gD Western blot); format: cell-based; details: 10 μM, HaCat, 4 hours at 4° C.
Insulin Receptor = Insulin Receptor (Homo sapiens, UniProt P06213); experiment: HotSpot in vitro kinase assay, Insulin Receptor

T1 sequence (P78527 whole entry): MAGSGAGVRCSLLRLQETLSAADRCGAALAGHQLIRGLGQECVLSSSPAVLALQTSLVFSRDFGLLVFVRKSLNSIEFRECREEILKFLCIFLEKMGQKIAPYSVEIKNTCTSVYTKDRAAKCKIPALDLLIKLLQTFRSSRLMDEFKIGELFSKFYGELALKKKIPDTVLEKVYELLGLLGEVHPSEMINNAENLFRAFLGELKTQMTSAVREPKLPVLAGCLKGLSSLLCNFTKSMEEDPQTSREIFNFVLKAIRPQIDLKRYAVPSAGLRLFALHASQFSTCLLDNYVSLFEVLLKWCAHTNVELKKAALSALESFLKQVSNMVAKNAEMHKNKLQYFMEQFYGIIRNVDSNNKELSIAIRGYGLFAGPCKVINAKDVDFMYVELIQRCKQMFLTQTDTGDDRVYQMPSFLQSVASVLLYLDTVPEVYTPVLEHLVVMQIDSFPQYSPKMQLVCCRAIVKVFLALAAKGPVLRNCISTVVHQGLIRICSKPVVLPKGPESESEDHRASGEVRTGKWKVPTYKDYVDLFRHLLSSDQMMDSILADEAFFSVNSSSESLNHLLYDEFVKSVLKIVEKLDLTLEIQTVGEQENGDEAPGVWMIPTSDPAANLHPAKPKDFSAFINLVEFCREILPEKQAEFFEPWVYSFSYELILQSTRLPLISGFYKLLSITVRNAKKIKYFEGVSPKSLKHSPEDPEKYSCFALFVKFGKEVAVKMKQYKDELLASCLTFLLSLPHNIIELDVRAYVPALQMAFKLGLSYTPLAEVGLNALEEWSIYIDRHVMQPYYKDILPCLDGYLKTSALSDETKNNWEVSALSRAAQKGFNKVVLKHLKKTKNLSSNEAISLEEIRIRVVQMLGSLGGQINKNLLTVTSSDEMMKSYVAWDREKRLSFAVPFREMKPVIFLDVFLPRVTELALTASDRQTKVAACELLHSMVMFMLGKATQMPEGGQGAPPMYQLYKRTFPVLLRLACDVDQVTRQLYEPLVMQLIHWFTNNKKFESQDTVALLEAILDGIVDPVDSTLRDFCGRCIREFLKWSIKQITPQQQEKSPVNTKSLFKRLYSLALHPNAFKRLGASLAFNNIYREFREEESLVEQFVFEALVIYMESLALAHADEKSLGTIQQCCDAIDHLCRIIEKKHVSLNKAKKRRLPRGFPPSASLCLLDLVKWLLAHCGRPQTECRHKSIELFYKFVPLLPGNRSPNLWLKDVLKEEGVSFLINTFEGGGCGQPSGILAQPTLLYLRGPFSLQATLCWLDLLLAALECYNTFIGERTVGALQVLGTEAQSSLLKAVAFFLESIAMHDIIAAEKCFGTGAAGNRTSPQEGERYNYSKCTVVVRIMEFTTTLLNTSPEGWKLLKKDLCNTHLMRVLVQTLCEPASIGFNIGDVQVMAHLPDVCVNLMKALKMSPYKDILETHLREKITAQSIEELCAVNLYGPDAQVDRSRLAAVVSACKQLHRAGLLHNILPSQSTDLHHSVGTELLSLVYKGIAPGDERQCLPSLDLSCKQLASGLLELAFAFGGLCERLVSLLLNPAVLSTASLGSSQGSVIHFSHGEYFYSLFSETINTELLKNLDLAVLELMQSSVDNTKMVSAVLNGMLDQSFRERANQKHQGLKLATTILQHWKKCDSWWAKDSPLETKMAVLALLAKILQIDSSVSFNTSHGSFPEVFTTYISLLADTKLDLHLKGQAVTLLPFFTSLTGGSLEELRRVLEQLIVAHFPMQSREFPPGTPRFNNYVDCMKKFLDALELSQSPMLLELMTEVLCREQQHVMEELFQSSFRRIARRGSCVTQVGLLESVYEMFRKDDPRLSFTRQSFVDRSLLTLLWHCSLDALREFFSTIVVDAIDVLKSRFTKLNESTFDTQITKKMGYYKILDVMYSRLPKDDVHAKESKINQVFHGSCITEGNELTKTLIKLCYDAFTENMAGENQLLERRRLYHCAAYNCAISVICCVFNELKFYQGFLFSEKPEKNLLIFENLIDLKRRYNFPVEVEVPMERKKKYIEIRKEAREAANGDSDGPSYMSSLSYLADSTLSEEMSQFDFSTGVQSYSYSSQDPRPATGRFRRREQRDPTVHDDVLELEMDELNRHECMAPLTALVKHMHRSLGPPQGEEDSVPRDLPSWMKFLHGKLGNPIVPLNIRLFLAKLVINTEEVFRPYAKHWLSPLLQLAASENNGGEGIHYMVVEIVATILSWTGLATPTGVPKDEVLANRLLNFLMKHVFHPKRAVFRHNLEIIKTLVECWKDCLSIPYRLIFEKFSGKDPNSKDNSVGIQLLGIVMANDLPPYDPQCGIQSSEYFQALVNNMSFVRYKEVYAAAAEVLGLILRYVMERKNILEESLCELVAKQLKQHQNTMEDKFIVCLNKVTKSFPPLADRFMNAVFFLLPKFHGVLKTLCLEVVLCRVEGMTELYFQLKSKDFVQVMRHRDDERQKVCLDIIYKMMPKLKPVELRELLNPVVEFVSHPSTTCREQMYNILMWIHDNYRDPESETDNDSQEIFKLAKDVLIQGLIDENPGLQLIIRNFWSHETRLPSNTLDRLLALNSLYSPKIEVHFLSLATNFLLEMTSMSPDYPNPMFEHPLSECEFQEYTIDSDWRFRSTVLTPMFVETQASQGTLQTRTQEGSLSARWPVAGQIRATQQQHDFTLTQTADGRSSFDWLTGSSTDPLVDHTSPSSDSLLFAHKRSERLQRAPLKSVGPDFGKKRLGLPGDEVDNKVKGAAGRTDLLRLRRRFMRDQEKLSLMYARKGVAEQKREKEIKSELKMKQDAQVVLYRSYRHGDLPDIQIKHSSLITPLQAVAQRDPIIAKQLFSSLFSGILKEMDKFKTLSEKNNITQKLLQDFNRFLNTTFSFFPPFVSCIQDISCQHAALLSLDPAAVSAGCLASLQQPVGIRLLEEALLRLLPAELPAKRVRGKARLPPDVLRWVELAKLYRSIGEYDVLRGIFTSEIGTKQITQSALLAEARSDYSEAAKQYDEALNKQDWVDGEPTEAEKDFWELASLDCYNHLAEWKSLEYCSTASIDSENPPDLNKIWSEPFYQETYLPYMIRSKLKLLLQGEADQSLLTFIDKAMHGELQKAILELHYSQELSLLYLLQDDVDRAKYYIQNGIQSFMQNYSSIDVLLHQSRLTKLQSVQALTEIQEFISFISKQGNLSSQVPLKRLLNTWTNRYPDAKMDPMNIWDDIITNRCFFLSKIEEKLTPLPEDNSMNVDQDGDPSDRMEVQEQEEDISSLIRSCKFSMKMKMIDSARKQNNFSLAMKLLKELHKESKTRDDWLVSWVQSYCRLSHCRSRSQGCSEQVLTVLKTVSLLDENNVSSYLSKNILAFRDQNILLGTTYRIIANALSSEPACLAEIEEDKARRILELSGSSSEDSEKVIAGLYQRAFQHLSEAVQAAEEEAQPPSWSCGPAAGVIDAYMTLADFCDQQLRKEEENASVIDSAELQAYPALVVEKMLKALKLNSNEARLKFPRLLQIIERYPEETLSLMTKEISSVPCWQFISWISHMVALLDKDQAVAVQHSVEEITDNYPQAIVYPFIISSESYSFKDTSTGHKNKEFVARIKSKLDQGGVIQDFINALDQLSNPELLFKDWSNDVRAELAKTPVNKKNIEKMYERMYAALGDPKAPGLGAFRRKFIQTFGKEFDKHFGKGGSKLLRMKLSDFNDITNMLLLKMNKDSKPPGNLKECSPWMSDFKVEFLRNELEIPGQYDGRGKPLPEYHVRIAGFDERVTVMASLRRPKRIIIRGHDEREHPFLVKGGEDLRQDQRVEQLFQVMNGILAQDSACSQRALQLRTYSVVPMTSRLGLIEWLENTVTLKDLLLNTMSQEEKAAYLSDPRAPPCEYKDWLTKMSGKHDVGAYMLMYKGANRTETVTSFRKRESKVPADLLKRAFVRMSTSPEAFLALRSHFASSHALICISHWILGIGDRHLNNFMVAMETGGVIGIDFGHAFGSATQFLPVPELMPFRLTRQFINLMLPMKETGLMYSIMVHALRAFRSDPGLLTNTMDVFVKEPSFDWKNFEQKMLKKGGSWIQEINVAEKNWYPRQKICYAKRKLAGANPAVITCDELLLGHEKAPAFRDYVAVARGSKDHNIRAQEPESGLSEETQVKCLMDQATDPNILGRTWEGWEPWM

**Q.** Which results are given for CO[C@@H]1[C@H](N(C)C(=O)CCC(=O)NCc2cn(CCCS(=O)(=O)[O-])nn2)C[C@H]2O[C@]1(C)n1c3ccccc3c3c4c(c5c6ccccc6n2c5c31)C(=O)NC4.[Na+] [CIMSS]?
**A.** remaining activity at 10 µM (panel of 393 kinases [1]; read-out: % Enzyme Activity (relative to DMSO controls) CIMSS (10 μM) Data 1, kinase DNA-PK, Data 1): 98.2%; remaining activity at 10 µM (panel of 393 kinases [1]; read-out: % Enzyme Activity (relative to DMSO controls) CIMSS (10 μM) Data 2, kinase DNA-PK, Data 2): 95.8%; remaining activity at 10 µM (panel of 393 kinases [2]; read-out: % Enzyme Activity (relative to DMSO controls) CIMSS (10 μM) Data 1, kinase AMPK(A1/B1/G1), Data 1): 1.14%; remaining activity at 10 µM (panel of 393 kinases [2]; read-out: % Enzyme Activity (relative to DMSO controls) CIMSS (10 μM) Data 1, kinase AMPK(A1/B1/G2), Data 1): 1.46%; remaining activity at 10 µM (panel of 393 kinases [2]; read-out: % Enzyme Activity (relative to DMSO controls) CIMSS (10 μM) Data 1, kinase AMPK(A1/B1/G3), Data 1): 0.22%; remaining activity at 10 µM (panel of 393 kinases [2]; read-out: % Enzyme Activity (relative to DMSO controls) CIMSS (10 μM) Data 1, kinase AMPK(A1/B2/G1), Data 1): 0.73%; remaining activity at 10 µM (panel of 393 kinases [2]; read-out: % Enzyme Activity (relative to DMSO controls) CIMSS (10 μM) Data 2, kinase AMPK(A1/B1/G1), Data 2): 1.14%; remaining activity at 10 µM (panel of 393 kinases [2]; read-out: % Enzyme Activity (relative to DMSO controls) CIMSS (10 μM) Data 2, kinase AMPK(A1/B1/G2), Data 2): 1.23%; remaining activity at 10 µM (panel of 393 kinases [2]; read-out: % Enzyme Activity (relative to DMSO controls) CIMSS (10 μM) Data 2, kinase AMPK(A1/B1/G3), Data 2): 0.07%; remaining activity at 10 µM (panel of 393 kinases [2]; read-out: % Enzyme Activity (relative to DMSO controls) CIMSS (10 μM) Data 2, kinase AMPK(A1/B2/G1), Data 2): 0.57%; remaining activity at 10 µM (panel of 393 kinases [3]; read-out: % Enzyme Activity (relative to DMSO controls) CIMSS (10 μM) Data 1, kinase PDK1/PDHK1, Data 1): 97.2%; remaining activity at 10 µM (panel of 393 kinases [3]; read-out: % Enzyme Activity (relative to DMSO controls) CIMSS (10 μM) Data 2, kinase PDK1/PDHK1, Data 2): 96.8%; remaining activity at 10 µM (panel of 393 kinases [4]; read-out: % Enzyme Activity (relative to DMSO controls) CIMSS (10 μM) Data 1, kinase TRPM7/CHAK1, Data 1): 91.6%; remaining activity at 10 µM (panel of 393 kinases [4]; read-out: % Enzyme Activity (relative to DMSO controls) CIMSS (10 μM) Data 2, kinase TRPM7/CHAK1, Data 2): 91.5%; remaining activity at 10 µM (panel of 393 kinases [5]; read-out: % Enzyme Activity (relative to DMSO controls) CIMSS (10 μM) Data 1, kinase PDK2/PDHK2, Data 1): 95.5%; remaining activity at 10 µM (panel of 393 kinases [5]; read-out: % Enzyme Activity (relative to DMSO controls) CIMSS (10 μM) Data 2, kinase PDK2/PDHK2, Data 2): 94%; remaining activity at 10 µM (panel of 393 kinases [6]; read-out: % Enzyme Activity (relative to DMSO controls) CIMSS (10 μM) Data 1, kinase EIF2AK1, Data 1): 82.5%; remaining activity at 10 µM (panel of 393 kinases [6]; read-out: % Enzyme Activity (relative to DMSO controls) CIMSS (10 μM) Data 2, kinase EIF2AK1, Data 2): 81.2%; remaining activity at 10 µM (panel of 393 kinases [7]; read-out: % Enzyme Activity (relative to DMSO controls) CIMSS (10 μM) Data 1, kinase mTOR/FRAP1, Data 1): 112%; remaining activity at 10 µM (panel of 393 kinases [7]; read-out: % Enzyme Activity (relative to DMSO controls) CIMSS (10 μM) Data 2, kinase mTOR/FRAP1, Data 2): 108%; remaining activity at 10 µM (panel of 393 kinases [8]; read-out: % Enzyme Activity (relative to DMSO controls) CIMSS (10 μM) Data 1, kinase PDK3/PDHK3, Data 1): 96.4%; remaining activity at 10 µM (panel of 393 kinases [8]; read-out: % Enzyme Activity (relative to DMSO controls) CIMSS (10 μM) Data 2, kinase PDK3/PDHK3, Data 2): 94.8%; remaining activity at 10 µM (panel of 393 kinases [9]; read-out: % Enzyme Activity (relative to DMSO controls) CIMSS (10 μM) Data 1, kinase EIF2AK3, Data 1): 61.6%; remaining activity at 10 µM (panel of 393 kinases [9]; read-out: % Enzyme Activity (relative to DMSO controls) CIMSS (10 μM) Data 2, kinase EIF2AK3, Data 2): 60.2%; remaining activity at 10 µM (panel of 393 kinases [10]; read-out: % Enzyme Activity (relative to DMSO controls) CIMSS (10 μM) Data 1, kinase PDK4/PDHK4, Data 1): 93.2%; remaining activity at 10 µM (panel of 393 kinases [10]; read-out: % Enzyme Activity (relative to DMSO controls) CIMSS (10 μM) Data 2, kinase PDK4/PDHK4, Data 2): 93%; remaining activity at 10 µM (panel of 393 kinases [11]; read-out: % Enzyme Activity (relative to DMSO controls) CIMSS (10 μM) Data 1, kinase EIF2AK2, Data 1): 9.89%; remaining activity at 10 µM (panel of 393 kinases [11]; read-out: % Enzyme Activity (relative to DMSO controls) CIMSS (10 μM) Data 2, kinase EIF2AK2, Data 2): 9.34%; remaining activity at 10 µM (panel of 393 kinases [12]; read-out: % Enzyme Activity (relative to DMSO controls) CIMSS (10 μM) Data 1, kinase EEF2K, Data 1): 99.5%; remaining activity at 10 µM (panel of 393 kinases [12]; read-out: % Enzyme Activity (relative to DMSO controls) CIMSS (10 μM) Data 2, kinase EEF2K, Data 2): 97%; cytotoxicity (HaCat cells): little or no cytotoxicity; IC50 (EGFR): 1610 nM; cytotoxicity [13]: little or no cytotoxicity; HSV binding to cells (HSV-2(G)): did not block; fold less effective than staurosporine (IC50), insulin receptor (Insulin Receptor): ~40 fold; IC50 (Insulin Receptor; read-out: Compound IC50, Insulin Receptor, in vitro kinase activity): 803 nM
